# According to PubChem BioAssay (NCI):
# “And” between values parts separate entries of the source, which are not always exact repeats. Equal entries are not always repeated.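 Cells were grown in 96-well plates and exposed to each compound for 48 hours at five concentrations; endpoints were interpolated linearly between bracketing concentrations, or set to the highest concentration if not reached. GI50 is the concentration that inhibits growth by half. TGI: concentration producing complete growth inhibition.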
# Test system: CCRF-CEM leukemia
# Test: growth of human tumour cells (NCI), 48 h
SMILES,TGI,GI50 [µM]
C[C@@]1(O)CC[C@]2(C)C3CCCC3[C@H]12 (some centres not stated),> 100 µM,–
O=C(O)CSc1n[nH]c(-c2ccccc2O)n1,> 100 µM,–
CCOc1ccc(NC2=CC(=O)C(=O)c3ccccc32)cc1,56.8 µM,–
O=C1c2ccccc2C(=O)c2c(/C=C\N3CCCCC3)ccnc21,47.6 µM,–
Cc1ccc(S(=O)(=O)N2CCC2c2ccccc2)cc1 (configuration not stated),> 100 µM,–
CCCOc1nc(N)c2cnn(C3CCCCO3)c2n1 (configuration not stated),> 100 µM,–
C/C(CN1C(=O)c2ccccc2C1=O)=N\NS(=O)(=O)c1ccc(Cl)cc1,> 100 µM,–
[O-][Cl+3]([O-])([O-])[O-].[O]=[Ru]=[O].c1ccc(-c2ccccn2)nc1.c1ccc(-c2ccccn2)nc1,> 100 µM,> 100
COc1cc2c(cc1OC)C(Cl)C(c1ccc(F)cc1)=C2Cl (configuration not stated),29.1 µM,–
CN(C)CC1CCC/C1=N/OC(=O)c1ccccc1 (configuration not stated),> 100 µM,–
CCC(C)SC1SCC2C(=O)N(C)C3(CC3C)C(=O)OCC(NC(=O)c3nc4ccccc4cc3O)C(=O)NC(C)C(=O)N(C)C1C(=O)N(C)C1(CC1C)C(=O)OCC(NC(=O)c1nc3ccccc3cc1O)C(=O)NC(C)C(=O)N2C (configuration not stated),0.028 µM and < 0.013 µM,–
CC1(C)CC(c2c[nH]c3ccccc23)=CC2=Nc3ccccc3C21O (configuration not stated),> 100 µM,–
CN1C(=O)C(=O)N2c3ccc(Cl)cc3C3(c4ccccc4)N=CC12O3 (configuration not stated),17.5 µM,–

# Test system: DMS 273 small cell lung
# Test: growth of human tumour cells (NCI), 48 h
SMILES,TGI [µM],GI50 [µM]
C[C@@]1(O)CC[C@]2(C)C3CCCC3[C@H]12 (some centres not stated),> 100,–
CCOC(=O)C1=C(C)N(NC(=O)Nc2ccccc2)C2(N)N(NC(=O)Nc3ccccc3)C(C)=C(C(=O)OCC)C12C(=O)OCC (configuration not stated),> 100,–
O=C(O)CSc1n[nH]c(-c2ccccc2O)n1,> 100,–
CCOc1ccc(NC2=CC(=O)C(=O)c3ccccc32)cc1,8.01,–
O=C1c2ccccc2C(=O)c2c(/C=C\N3CCCCC3)ccnc21,10.4,–
Cc1ccc(S(=O)(=O)N2CCC2c2ccccc2)cc1 (configuration not stated),> 100,–
CCCOc1nc(N)c2cnn(C3CCCCO3)c2n1 (configuration not stated),> 100,–
C/C(CN1C(=O)c2ccccc2C1=O)=N\NS(=O)(=O)c1ccc(Cl)cc1,> 100,–
COc1ccc(/C=C/COC(C)=O)cc1OC,> 100,–
[O-][Cl+3]([O-])([O-])[O-].[O]=[Ru]=[O].c1ccc(-c2ccccn2)nc1.c1ccc(-c2ccccn2)nc1,> 100,22.4
COc1cc2c(cc1OC)C(Cl)C(c1ccc(F)cc1)=C2Cl (configuration not stated),31.9,–
O=C1C(C(Nc2ccccc2)c2ccccc2)=C([O-])c2ccccc21.O=C1C(C(Nc2ccccc2)c2ccccc2)=C([O-])c2ccccc21.[Cu+2] (configuration not stated),> 100,26.3
CN(C)CC1CCC/C1=N/OC(=O)c1ccccc1 (configuration not stated),> 100,–
CCC(C)SC1SCC2C(=O)N(C)C3(CC3C)C(=O)OCC(NC(=O)c3nc4ccccc4cc3O)C(=O)NC(C)C(=O)N(C)C1C(=O)N(C)C1(CC1C)C(=O)OCC(NC(=O)c1nc3ccccc3cc1O)C(=O)NC(C)C(=O)N2C (configuration not stated),0.000123,–
CC1(C)CC(c2c[nH]c3ccccc23)=CC2=Nc3ccccc3C21O (configuration not stated),> 100,–
CN1C(=O)C(=O)N2c3ccc(Cl)cc3C3(c4ccccc4)N=CC12O3 (configuration not stated),16.4,–

# Test system: NCI-H226 lung
# Test: growth of human tumour cells (NCI), 48 h
SMILES,TGI [µM],GI50 [µM]
C[C@@]1(O)CC[C@]2(C)C3CCCC3[C@H]12 (some centres not stated),> 100,–
O=C(O)CSc1n[nH]c(-c2ccccc2O)n1,> 100,–
CCOc1ccc(NC2=CC(=O)C(=O)c3ccccc32)cc1,13.3,–
O=C1c2ccccc2C(=O)c2c(/C=C\N3CCCCC3)ccnc21,8.31,–
Cc1ccc(S(=O)(=O)N2CCC2c2ccccc2)cc1 (configuration not stated),> 100,–
CCCOc1nc(N)c2cnn(C3CCCCO3)c2n1 (configuration not stated),> 100,–
C/C(CN1C(=O)c2ccccc2C1=O)=N\NS(=O)(=O)c1ccc(Cl)cc1,> 100,–
COc1ccc(/C=C/COC(C)=O)cc1OC,> 100,–
[O-][Cl+3]([O-])([O-])[O-].[O]=[Ru]=[O].c1ccc(-c2ccccn2)nc1.c1ccc(-c2ccccn2)nc1,> 100,56.7
COc1cc2c(cc1OC)C(Cl)C(c1ccc(F)cc1)=C2Cl (configuration not stated),74,–
CN(C)CC1CCC/C1=N/OC(=O)c1ccccc1 (configuration not stated),> 100,–
CCC(C)SC1SCC2C(=O)N(C)C3(CC3C)C(=O)OCC(NC(=O)c3nc4ccccc4cc3O)C(=O)NC(C)C(=O)N(C)C1C(=O)N(C)C1(CC1C)C(=O)OCC(NC(=O)c1nc3ccccc3cc1O)C(=O)NC(C)C(=O)N2C (configuration not stated),0.000892,–
CC1(C)CC(c2c[nH]c3ccccc23)=CC2=Nc3ccccc3C21O (configuration not stated),57.7,–
CN1C(=O)C(=O)N2c3ccc(Cl)cc3C3(c4ccccc4)N=CC12O3 (configuration not stated),26.8,–

# Test system: OVCAR-3 ovarian
# Test: growth of human tumour cells (NCI), 48 h
SMILES,TGI [µM],GI50 [µM]
C[C@@]1(O)CC[C@]2(C)C3CCCC3[C@H]12 (some centres not stated),> 100,–
CCOC(=O)C1=C(C)N(NC(=O)Nc2ccccc2)C2(N)N(NC(=O)Nc3ccccc3)C(C)=C(C(=O)OCC)C12C(=O)OCC (configuration not stated),> 100,–
O=C(O)CSc1n[nH]c(-c2ccccc2O)n1,> 100,–
CCOc1ccc(NC2=CC(=O)C(=O)c3ccccc32)cc1,8.21,–
O=C1c2ccccc2C(=O)c2c(/C=C\N3CCCCC3)ccnc21,9.53,–
Cc1ccc(S(=O)(=O)N2CCC2c2ccccc2)cc1 (configuration not stated),> 100,–
CCCOc1nc(N)c2cnn(C3CCCCO3)c2n1 (configuration not stated),> 100,–
C/C(CN1C(=O)c2ccccc2C1=O)=N\NS(=O)(=O)c1ccc(Cl)cc1,> 100,–
COc1ccc(/C=C/COC(C)=O)cc1OC,> 100,–
[O-][Cl+3]([O-])([O-])[O-].[O]=[Ru]=[O].c1ccc(-c2ccccn2)nc1.c1ccc(-c2ccccn2)nc1,> 100,> 100
COc1cc2c(cc1OC)C(Cl)C(c1ccc(F)cc1)=C2Cl (configuration not stated),30.6,–
CN(C)CC1CCC/C1=N/OC(=O)c1ccccc1 (configuration not stated),> 100,–
CCC(C)SC1SCC2C(=O)N(C)C3(CC3C)C(=O)OCC(NC(=O)c3nc4ccccc4cc3O)C(=O)NC(C)C(=O)N(C)C1C(=O)N(C)C1(CC1C)C(=O)OCC(NC(=O)c1nc3ccccc3cc1O)C(=O)NC(C)C(=O)N2C (configuration not stated),0.00768,0.000162
CC1(C)CC(c2c[nH]c3ccccc23)=CC2=Nc3ccccc3C21O (configuration not stated),> 100,–
CN1C(=O)C(=O)N2c3ccc(Cl)cc3C3(c4ccccc4)N=CC12O3 (configuration not stated),14.8,–

# Test system: OVCAR-8 ovarian
# Test: growth of human tumour cells (NCI), 48 h
SMILES,TGI [µM],GI50 [µM]
C[C@@]1(O)CC[C@]2(C)C3CCCC3[C@H]12 (some centres not stated),> 100,–
CCOC(=O)C1=C(C)N(NC(=O)Nc2ccccc2)C2(N)N(NC(=O)Nc3ccccc3)C(C)=C(C(=O)OCC)C12C(=O)OCC (configuration not stated),> 100,–
O=C(O)CSc1n[nH]c(-c2ccccc2O)n1,> 100,–
CCOc1ccc(NC2=CC(=O)C(=O)c3ccccc32)cc1,15.4,–
O=C1c2ccccc2C(=O)c2c(/C=C\N3CCCCC3)ccnc21,17.5,–
Cc1ccc(S(=O)(=O)N2CCC2c2ccccc2)cc1 (configuration not stated),> 100,–
CCCOc1nc(N)c2cnn(C3CCCCO3)c2n1 (configuration not stated),> 100,–
C/C(CN1C(=O)c2ccccc2C1=O)=N\NS(=O)(=O)c1ccc(Cl)cc1,> 100,–
COc1ccc(/C=C/COC(C)=O)cc1OC,> 100,–
[O-][Cl+3]([O-])([O-])[O-].[O]=[Ru]=[O].c1ccc(-c2ccccn2)nc1.c1ccc(-c2ccccn2)nc1,> 100,> 100
COc1cc2c(cc1OC)C(Cl)C(c1ccc(F)cc1)=C2Cl (configuration not stated),36.8,–
O=C1C(C(Nc2ccccc2)c2ccccc2)=C([O-])c2ccccc21.O=C1C(C(Nc2ccccc2)c2ccccc2)=C([O-])c2ccccc21.[Cu+2] (configuration not stated),> 100,41.9
CN(C)CC1CCC/C1=N/OC(=O)c1ccccc1 (configuration not stated),> 100,–
CCC(C)SC1SCC2C(=O)N(C)C3(CC3C)C(=O)OCC(NC(=O)c3nc4ccccc4cc3O)C(=O)NC(C)C(=O)N(C)C1C(=O)N(C)C1(CC1C)C(=O)OCC(NC(=O)c1nc3ccccc3cc1O)C(=O)NC(C)C(=O)N2C (configuration not stated),0.0133,–
CC1(C)CC(c2c[nH]c3ccccc23)=CC2=Nc3ccccc3C21O (configuration not stated),> 100,–
CN1C(=O)C(=O)N2c3ccc(Cl)cc3C3(c4ccccc4)N=CC12O3 (configuration not stated),12.8,–
